The results in this text go back to patent publication US10544150B2, “NK-3 receptor selective antagonist compounds, pharmaceutical composition and methods for use in NK-3 receptors mediated disorders” (Ogeda SA, priority 2010, dated 2020).

Chain of human NK-3 receptor (P29371 whole entry): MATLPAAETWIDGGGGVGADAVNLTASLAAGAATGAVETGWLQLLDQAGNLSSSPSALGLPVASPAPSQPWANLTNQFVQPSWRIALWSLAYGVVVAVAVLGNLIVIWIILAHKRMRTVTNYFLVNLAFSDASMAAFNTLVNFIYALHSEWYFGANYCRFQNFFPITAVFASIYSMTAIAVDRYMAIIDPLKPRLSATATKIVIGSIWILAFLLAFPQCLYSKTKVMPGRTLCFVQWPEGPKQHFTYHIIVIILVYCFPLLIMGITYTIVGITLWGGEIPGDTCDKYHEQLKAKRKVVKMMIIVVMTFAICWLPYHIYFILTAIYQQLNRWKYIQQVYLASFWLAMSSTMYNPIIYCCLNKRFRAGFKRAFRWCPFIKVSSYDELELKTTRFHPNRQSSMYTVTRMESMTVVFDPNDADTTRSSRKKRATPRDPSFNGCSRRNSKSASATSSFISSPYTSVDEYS

This assay concerns the target human NK-3 receptor (Homo sapiens (Human), UniProt P29371). Briefly: 3H-SB222200 binding competition assay with human NK-3 receptor. To be noted: 3H-SB222200 displacement, CHO cell membranes expressing human NK3 receptor; read-out: Ki range. A digest of the protocol: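 Radioligand displacement: 5 nM tritiated SB222200 competed by varying compound concentrations on recombinant CHO membranes bearing human NK3, buffer pH 7.4 with HEPES, NaCl, CaCl2, MgCl2, BSA and saponin. Filter-bound radioactivity quantified; calculated Ki given as ranges from +++ (<500 nM) to # (>5 μM).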
As for `O=C(c1ccc(-c2cccs2)cc1)N1CCn2c(nnc2-c2nc(-c3ccc(F)cc3F)no2)C1` [Compound 185, (3-(3-(2,4-difluorophenyl)-1,2,4-oxadiazol-5-yl)-5,6-dihydro-[1,2,4]triazolo[4,3-a]pyrazin-7(8H)-yl)(4-(thiophen-2-yl)phenyl)methanone], the Ki was more than 5000 nM.

As for `O=C(c1ccc(-c2ccccc2)cc1)N1CCn2c(nnc2-c2csc(Cn3cnc(Cl)c3Cl)n2)C1` [Compound 186, [1,1′-biphenyl]-4-yl(3-(2-((4,5-dichloro-1H-imidazol-1-yl)methyl)thiazol-4-yl)-5,6-dihydro-[1,2,4]triazolo[4,3-a]pyrazin-7(8H)-yl)methanone], the Ki was 1000 to 5000 nM.

As to `O=C(c1ccc(-c2ccc(F)cc2)cc1)N1CCn2c(nnc2-c2csc(Cn3cnc(Cl)c3Cl)n2)C1` [Compound 187, (3-(2-((4,5-dichloro-1H-imidazol-1-yl)methyl)thiazol-4-yl)-5,6-dihydro-[1,2,4]triazolo[4,3-a]pyrazin-7(8H)-yl)(4′-fluoro-[1,1′-biphenyl]-4-yl)methanone], the Ki lay within 1000 to 5000 nM.

In the case of `O=C(c1ccc(F)cc1)N1CCn2c(nnc2-c2csc(Cc3ccc(Cl)cc3)n2)C1` [Compound 188, (3-(2-(4-chlorobenzyl)thiazol-4-yl)-5,6-dihydro-[1,2,4]triazolo[4,3-a]pyrazin-7(8H)-yl)(4-fluorophenyl)methanone], the Ki was 500 to 1000 nM.

Take `Cc1ccc(-c2nc(-c3nnc4n3CCN(C(=O)c3ccc(F)cc3)C4)cs2)cc1` [Compound 190, (4-fluorophenyl)(3-(2-(p-tolyl)thiazol-4-yl)-5,6-dihydro-[1,2,4]triazolo[4,3-a]pyrazin-7(8H)-yl)methanone]: the Ki is less than 500 nM.

Consider `Cc1ccc(-c2nc(-c3nnc4n3CCN(C(=O)c3ccc(-c5cccs5)cc3)C4)cs2)cc1` [Compound 191, (4-(thiophen-2-yl)phenyl)(3-(2-(p-tolyl)thiazol-4-yl)-5,6-dihydro-[1,2,4]triazolo[4,3-a]pyrazin-7(8H)-yl)methanone], for which the Ki is more than 5000 nM.

Turning to `O=C(c1ccc(F)cc1)N1CCn2c(nnc2-c2csc(-c3cccs3)n2)C1` [Compound 193, (4-fluorophenyl)(3-(2-(thiophen-2-yl)thiazol-4-yl)-5,6-dihydro-[1,2,4]triazolo[4,3-a]pyrazin-7(8H)-yl)methanone], the Ki is less than 500 nM.

For the molecule `O=C(c1ccc(-c2cccs2)cc1)N1CCn2c(nnc2-c2csc(-c3cccs3)n2)C1` [Compound 194, (4-(thiophen-2-yl)phenyl)(3-(2-(thiophen-2-yl)thiazol-4-yl)-5,6-dihydro-[1,2,4]triazolo[4,3-a]pyrazin-7(8H)-yl)methanone], the Ki was less than 500 nM.

As for `O=C(c1ccc(-c2ccccc2)cc1)N1CCn2c(nnc2-c2csc(-c3cccs3)n2)C1` [Compound 195, [1,1′-biphenyl]-4-yl(3-(2-(thiophen-2-yl)thiazol-4-yl)-5,6-dihydro-[1,2,4]triazolo[4,3-a]pyrazin-7(8H)-yl)methanone], the Ki was less than 500 nM.

As for `O=C(c1ccc(-c2ccc(F)cc2)cc1)N1CCn2c(nnc2-c2csc(-c3cccs3)n2)C1` [Compound 196, (4′-fluoro-[1,1′-biphenyl]-4-yl)(3-(2-(thiophen-2-yl)thiazol-4-yl)-5,6-dihydro-[1,2,4]triazolo[4,3-a]pyrazin-7(8H)-yl)methanone], the Ki was less than 500 nM.

Turning to `O=C(c1ccc(-c2cccs2)cc1)N1CCn2c(nnc2-c2csc(CS(=O)(=O)c3ccc(Cl)cc3)n2)C1` [Compound 198, (3-(2-(((4-chlorophenyl)sulfonyl)methyl)thiazol-4-yl)-5,6-dihydro-[1,2,4]triazolo[4,3-a]pyrazin-7(8H)-yl)(4-(thiophen-2-yl)phenyl)methanone], the Ki is 1000 to 5000 nM.

Turning to `O=C(c1ccc(-c2ccccc2)cc1)N1CCn2c(nnc2-c2csc(CS(=O)(=O)c3ccc(Cl)cc3)n2)C1` [Compound 199, [1,1′-biphenyl]-4-yl(3-(2-(((4-chlorophenyl)sulfonyl)methyl)thiazol-4-yl)-5,6-dihydro-[1,2,4]triazolo[4,3-a]pyrazin-7(8H)-yl)methanone], the Ki was 1000 to 5000 nM.

One may read the Ki as the dissociation constant of the complex between target and ligand, obtained from inhibition or displacement.
